We go through 33 compounds from ChEMBL document CHEMBL1144437, “Identification of nonpeptidic small-molecule inhibitors of interleukin-2” (Bioorg Med Chem Lett, 2005).

As usually defined, the IC50 is the midpoint of a concentration-inhibition curve. Low readings indicate inhibition by little substance, high ones a need for much substance.

SMILES strings stand for the structures.

A short description of the experiment: Inhibitory concentration against interleukin-2 binding. Also noted: species or system Homo sapiens.
`COC(=O)[C@H](Cc1ccc(C#Cc2ccccc2)cc1)NC(=O)C[C@H]1CCCN(C(=N)N)C1` yielded an IC50 of 3 µM.

As to `CCCN(CCCNS(=O)(=O)N1CCC(c2cc(-c3cccc(Cl)c3Cl)nn2C)CC1)C(=N)N`, the IC50 stood at 32 µM.

As for `CCN(CC)C(=O)[C@H](CCNC(=O)N1CCC(c2cc(-c3cccc(Cl)c3Cl)nn2C)CC1)N=C(N)N`, the IC50 came out at 11 µM.

For the compound `C[C@H](CCNS(=O)(=O)N1CCC(c2cc(-c3cccc(Cl)c3Cl)nn2C)CC1)N=C(N)N`, the IC50 worked out at 90 µM.

With `CC(C)[C@H](CCNC(=O)N1CCC(c2cc(-c3cccc(Cl)c3Cl)nn2C)CC1)N=C(N)N`, the IC50 amounted to 55 µM.

`CN(CCCNS(=O)(=O)N1CCC(c2cc(-c3cccc(Cl)c3Cl)nn2C)CC1)C(=N)N` registered an IC50 of 14 µM.

For `Cn1nc(-c2cccc(Cl)c2Cl)cc1C1CCN(C(=O)NCCCCN=C(N)N)CC1`, the IC50 is above 100 µM.

Regarding `CN(CCCNS(=O)(=O)N1CCC(c2cc(-c3ccc(OCc4ccc(C(=O)O)o4)c(Cl)c3Cl)nn2C)CC1)C(=N)N`, the IC50 was 0.6 µM.

`CC(C)C[C@H](CCNS(=O)(=O)N1CCC(c2cc(-c3cccc(Cl)c3Cl)nn2C)CC1)N=C(N)N` gave an IC50 of 30 µM.

`CC(C)C[C@H](CCNC(=O)N1CCC(c2cc(-c3cccc(Cl)c3Cl)nn2C)CC1)N=C(N)N` yielded an IC50 of 23 µM.

`Cn1nc(-c2cccc(Cl)c2Cl)cc1C1CCN(C(=O)NCC[C@H](N=C(N)N)C(=O)N2CCCC2)CC1` displayed an IC50 of 20 µM.

As for `Cn1nc(-c2cccc(Cl)c2Cl)cc1C1CCN(C(=O)NCC[C@H](N=C(N)N)C(=O)N2CCC3CCCCC3C2)CC1` (stereo partly drawn), the IC50 is above 100 µM.

Take `CN(C)C(=O)[C@H](CCNC(=O)N1CCC(c2cc(-c3cccc(Cl)c3Cl)nn2C)CC1)N=C(N)N`: the IC50 was 7 µM.

With `C[C@H](CCNC(=O)N1CCC(c2cc(-c3cccc(Cl)c3Cl)nn2C)CC1)N=C(N)N`, the IC50 amounted to 57 µM.

`CCCN(CCCNC(=O)N1CCC(c2cc(-c3cccc(Cl)c3Cl)nn2C)CC1)C(=N)N` had an IC50 above 100 µM.

As for `Cn1nc(-c2cccc(Cl)c2Cl)cc1C1CCN(S(=O)(=O)NCCCN=C(N)N)CC1`, the IC50 amounted to 23 µM.

`Cn1nc(-c2cccc(Cl)c2Cl)cc1C1CCN(C(=O)NCCN=C(N)N)CC1` came in with a concentration for half-maximal inhibition (IC50) above 100 µM.

`CC(C)N(CCCNC(=O)N1CCC(c2cc(-c3cccc(Cl)c3Cl)nn2C)CC1)C(=N)N` yielded an IC50 above 100 µM.

Regarding `CCN(CC1CC1)C(=O)[C@H](CCNC(=O)N1CCC(c2cc(-c3cccc(Cl)c3Cl)nn2C)CC1)N=C(N)N`, the concentration for half-maximal inhibition (IC50) was determined as 60 µM.

The compound `Cn1nc(-c2cccc(Cl)c2Cl)cc1C1CCN(C(=O)NCCCN=C(N)N)CC1` showed an IC50 of 29 µM.

`Cn1nc(-c2cccc(Cl)c2Cl)cc1C1CCN(S(=O)(=O)NCCN=C(N)N)CC1`: the IC50 was above 100 µM.

Turning to `CC(C)N(CCCNS(=O)(=O)N1CCC(c2cc(-c3cccc(Cl)c3Cl)nn2C)CC1)C(=N)N`, the IC50 is 48 µM.

`N=C(N)N[C@@H](C(=O)NCC(=O)N1CCC(c2cc(-c3cccc(Cl)c3Cl)n[nH]2)CC1)C1CCCCC1` registered an IC50 of 6 µM.

On to `Cn1nc(-c2cccc(Cl)c2Cl)cc1C1CCN(S(=O)(=O)NCCCCN=C(N)N)CC1`, for which the IC50 was above 100 µM.

For `COC(=O)[C@H](CCNC(=O)N1CCC(c2cc(-c3cccc(Cl)c3Cl)nn2C)CC1)N=C(N)N`, the IC50 was above 100 µM.

The compound `CC(C)[C@@H](CCNC(=O)N1CCC(c2cc(-c3cccc(Cl)c3Cl)nn2C)CC1)N=C(N)N` returned a half-maximal inhibitory concentration (IC50) above 100 µM.

In turn, `CC(C)[C@@H](CCNS(=O)(=O)N1CCC(c2cc(-c3cccc(Cl)c3Cl)nn2C)CC1)N=C(N)N` registered an IC50 above 100 µM.

For `Cn1nc(-c2cccc(Cl)c2Cl)cc1C1CCN(C(=O)NCC[C@H](N=C(N)N)C(=O)O)CC1`, the IC50 is above 100 µM.

Regarding `CC(C)[C@H](CCNS(=O)(=O)N1CCC(c2cc(-c3cccc(Cl)c3Cl)nn2C)CC1)N=C(N)N`, the IC50 came to 76 µM.

`CN(CCCNC(=O)N1CCC(c2cc(-c3cccc(Cl)c3Cl)nn2C)CC1)C(=N)N` returned a half-maximal inhibitory concentration (IC50) of 16 µM.

Compound `CC(C)C[C@@H](NC(=N)N)C(=O)NCC(=O)N1CCC(c2cc(-c3ccc(OCc4ccc(C(=O)O)o4)c(Cl)c3Cl)nn2C)CC1` displayed a half-maximal inhibitory concentration (IC50) of 0.06 µM.

Consider `CC(=O)N1CCN(C(=O)[C@H](CCNC(=O)N2CCC(c3cc(-c4cccc(Cl)c4Cl)nn3C)CC2)N=C(N)N)CC1`, for which the 50% inhibitory concentration (IC50) came to 60 µM.

`CNC(=O)[C@H](CCNC(=O)N1CCC(c2cc(-c3cccc(Cl)c3Cl)nn2C)CC1)N=C(N)N` came in with an IC50 above 100 µM.
